Ends that are not written are not given here.
Key:
A. niger ATCC 16404 = details: broth microdilution (CLSI), 2 × 10^3 CFU/mL in RPMI-1640, 0.5–256 µg/mL, 24 h at 37 °C, triplicate
Method: (§1) The minimal inhibitory concentrations (MICs) for bacteria and fungi were determined by the broth microdilution method according to the Clinical and Laboratory Standards Institute (CLSI) protocol (Clinical and Laboratory Standards Institute (CLSI) [2002], [2012]). For this purpose, the initial inoculums of bacteria (5 × 10^5 CFU/mL) in Mueller–Hinton Broth (Biocorp, Warsaw, Poland) were exposed to the ranging concentrations of compounds (0.125–256 µg/mL) and incubated for 18 h at 37 °C. In case of fungi, the initial inoculums of 2 × 10^3 CFU/mL in RPMI-1640 (Sigma-Aldrich, Steinheim, Germany) were exposed to the ranging concentrations of compounds (0.5–256 µg/mL) and incubated for 24 h at 37 °C. The experiments were conducted on 96-well microtiter plates, with the final volume of 100 µL. Cell densities were adjusted spectrophotometrically (Multiskan™ GO Microplate Spectrophotometer, Thermo Scientific) at the wavelengths of 600 nm for bacteria and 530 nm for fungi. The MIC was taken as the lowest drug concentration at which a noticeable growth of microorganisms was inhibited. Reference strains of bacteria: Escherichia coli ATCC 25922, E. coli ATCC 23506, Enterococcus faecalis PCM 2673, Klebsiella pneumoniae ATCC 700603, Pseudomonas aeruginosa ATCC 9027, Staphylococcus aureus ATCC 25923, S. aureus 9144, Streptococcus pneumoniae ATCC 49619, and fungi: Aspergillus niger ATCC 16404, Candida albicans ATCC 10231, and C. glabrata ATCC 15126 were obtained from Polish Collection of Microorganisms (PCM, Polish Academy of Sciences, Wroclaw, Poland) and from American Type Culture Collection (ATCC). All experiments were conducted in triplicate.

C. albicans ATCC 10231 = details: broth microdilution (CLSI), 2 × 10^3 CFU/mL in RPMI-1640, 0.5–256 µg/mL, 24 h at 37 °C, triplicate
Method: as §1

C. glabrata ATCC 15126 = details: broth microdilution (CLSI), 2 × 10^3 CFU/mL in RPMI-1640, 0.5–256 µg/mL, 24 h at 37 °C, triplicate
Method: as §1

E. coli ATCC 23506 = details: broth microdilution (CLSI), 5 × 10^5 CFU/mL in Mueller–Hinton Broth, 0.125–256 µg/mL, 18 h at 37 °C, triplicate
Method: as §1

E. coli ATCC 25922 = details: broth microdilution (CLSI), 5 × 10^5 CFU/mL in Mueller–Hinton Broth, 0.125–256 µg/mL, 18 h at 37 °C, triplicate
Method: as §1

E. faecalis PCM 2673 = details: broth microdilution (CLSI), 5 × 10^5 CFU/mL in Mueller–Hinton Broth, 0.125–256 µg/mL, 18 h at 37 °C, triplicate
Method: as §1

[1] = test system: K. pneumoniae ATCC 700603; details: broth microdilution (CLSI), 5 × 10^5 CFU/mL in Mueller–Hinton Broth, 0.125–256 µg/mL, 18 h at 37 °C, triplicate
Method: as §1

P. aeruginosa ATCC 9027 = details: broth microdilution (CLSI), 5 × 10^5 CFU/mL in Mueller–Hinton Broth, 0.125–256 µg/mL, 18 h at 37 °C, triplicate
Method: as §1

S. aureus ATCC 25923 = details: broth microdilution (CLSI), 5 × 10^5 CFU/mL in Mueller–Hinton Broth, 0.125–256 µg/mL, 18 h at 37 °C, triplicate
Method: as §1

S. aureus ATCC 9144 = details: broth microdilution (CLSI), 5 × 10^5 CFU/mL in Mueller–Hinton Broth, 0.125–256 µg/mL, 18 h at 37 °C, triplicate
Method: as §1

S. pneumoniae ATCC 49619 = details: broth microdilution (CLSI), 5 × 10^5 CFU/mL in Mueller–Hinton Broth, 0.125–256 µg/mL, 18 h at 37 °C, triplicate
Method: as §1

[2] = test system: human red blood cells (RBCs); experiment: Hemolysis assay; assay type: cell-based; details: fresh human RBCs 4% (v/v) in PBS, 60 min at 37 °C, absorbance 540 nm, 100% control 1% Triton-X 100, triplicate
Method: The hemolysis assay was conducted according to the procedure described previously in the literature (Avrahami and Shai [2004]). Fresh human red blood cells (RBCs) with EDTA as anticoagulant were rinsed three times with a phosphate-buffer saline (PBS) by centrifugation at 800×g for 10 min and resuspended in PBS. Serial dilution of peptides (1–512 µg/mL) was conducted in PBS on 96-well plates. Then the stock solution of RBCs was added to reach a final volume of 100 µL with a 4% concentration of erythrocytes (v/v). The control wells for 0 and 100% hemolysis consisted of RBCs suspended in PBS and 1% of Triton-X 100, respectively. Subsequently, the plates were incubated for 60 min at 37 °C and then centrifuged at 800×g for 10 min at 4 °C (Sorvall ST 16R Centrifuge, Thermo Scientific). After centrifugation the supernatant was carefully […] to new microtiter plates and the release of hemoglobin was monitored by measurement of absorbance at 540 nm (Multiskan™ GO Microplate Spectrophotometer, Thermo Scientific). All experiments were conducted in triplicate.

LVKLVAGIKKFLKWK-NH2 [r-CAMEL]
MIC, A. niger ATCC 16404 (A. niger ATCC 16404): 256 µg/mL | MIC, C. albicans ATCC 10231 (C. albicans ATCC 10231): 256 µg/mL | MIC, C. glabrata ATCC 15126 (C. glabrata ATCC 15126): >256 µg/mL | MIC, E. coli ATCC 23506 (E. coli ATCC 23506): 64 µg/mL | MIC, E. coli ATCC 25922 (E. coli ATCC 25922): 128 µg/mL | MIC, E. faecalis PCM 2673 (E. faecalis PCM 2673): 64 µg/mL | MIC, K. pneumoniae ATCC 700603 [1]: 2 µg/mL | MIC, P. aeruginosa ATCC 9027 (P. aeruginosa ATCC 9027): 8 µg/mL | MIC, S. aureus ATCC 25923 (S. aureus ATCC 25923): 128 µg/mL | MIC, S. aureus ATCC 9144 (S. aureus ATCC 9144): 64 µg/mL | MIC, S. pneumoniae ATCC 49619 (S. pneumoniae ATCC 49619): 128 µg/mL | rate of hemolysis at MIC concentrations [2]: below 10%

From paper PMC5602100, “Retro analog concept: comparative study on physico-chemical and biological properties of selected antimicrobial peptides” (Amino Acids, 2017)
